Data taken from patent publication US20130167838A1, “NASAL FORMULATION” (TEVA BRANDED PHARMACEUTICAL PRODUCTS, INC., priority 2011, published 2013).
Structures can show the parent of a compound that is named as a salt.

Columns and labels:
[1] = Solubility in an HFA/ethanol formulation; assay type: physicochemical
Source text: Azelastine has been marketed as the hydrochloride salt, but the problem is that the hydrochloride salt is not soluble in an HFA/ethanol formulation.

[2] = Stability of active ingredients in ethanol formulations with and without hydrochloric acid, stored at 60° C. for 21 days, HPLC; assay type: physicochemical; settings: ethanol formulations with vs without HCl, FIG. 2
Experimental: Further formulations were prepared containing the active ingredient(s) and ethanol with and without hydrochloric acid in order to test the stability of the active ingredients. The formulations were: Formulation (i): azelastine+BDP, with acid Formulation (ii): BDP without acid Formulation (iii): BDP with acid Formulation (iv): azelastine+BDP, without acid The precise ethanol formulations were as follows: [table] The formulations were stored at 60° C. for 21 days and the amounts of the active ingredients measured at intervals during the test period. The amounts of the active ingredients were measured using HPLC with external standards of azelastine free base and BDP. The results are shown graphically in FIG. 2. […] The BDP with no acid and no azelastine was […]. However, the combination of BDP with both acid and azelastine is […].

solubility in an HFA/ethanol formulation [1] | stabilisation of the azelastine by including an acid (amount measured by HPLC) [2] | SMILES
not soluble |  | CN1CCCC(n2nc(Cc3ccc(Cl)cc3)c3ccccc3c2=O)CC1 (centres unmarked) [hydrochloride salt, azelastine hydrochloride]
 | some additional stabilisation | CN1CCCC(n2nc(Cc3ccc(Cl)cc3)c3ccccc3c2=O)CC1 (centres unmarked) [azelastine, Azelastine]
